From patent US20240239790A1, “7-Morpholino-1,6-Naphthyridin-5-yl Derivatives and Pharmaceutical Compositions Thereof Useful as DNA-PK Inhibitor” (adMare Therapeutics Society, priority 2021, published 2024)
Read-outs that look alike come from different tables or passages of the source.

Columns and labels:
[1] = system: pH2AX induction in HCT116 ATM-/- multicellular tumour spheroids; assay: Prodrug Radiation Sensitization in Multicellular Tumour Spheroids, inhibition of pH2AX induction following radiation; type: cell-based; details: Homo sapiens, HCT-116, 20 Gy
Outline: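 HCT116 and FaDu spheroids (~0.5 mm diameter), ATM-deficient lines included, in MEM/10% FBS/10 mM glucose at 37 °C under 20% vs 5% oxygen with stirring. Prodrugs 10 μM down to 3.5 nM, 20 Gy irradiation. pDNA-PK (ser 2056) or pH2AX (ser 139) scored in formalin-fixed cryosections 1 or 2 h post-radiation.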

FaDu cell line = assay: Prodrug Activation in Hypoxic Stirred Tumour Cell Suspensions; details: 10 μM, 4 hours
[2] = molecular target: T1, DNA-PK phosphorylation at Serine 2056 (Homo sapiens, UniProt P78527); assay: Cellular Assay for Inhibition of DNA-PK Phosphorylation at Serine 2056 in FaDu cells (sandwich ELISA, neocarzinostatin); type: cell-based; details: pSer2056 DNA-PK, Table 3
T1 construct: FaDu cells were purchased from ATCC; host or cells: FaDu
Outline: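 FaDu cells pre-treated with compound (0.3% DMSO) for 1 h, then neocarzinostatin 1 μg/mL final added for 2 h to induce DSBs. Protein-normalised lysates read by sandwich ELISA for total and pSer2056 DNA-PK; % inhibition normalised between DMSO and NCS controls, IC50 from variable-slope log(inhibitor) fit.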

[3] = 5% O2, inner layers, read-out: Prodrug 5% O2 Inner layers EC50
[4] = 5% O2, outer layers, read-out: Prodrug 5% O2 Outer layers EC50
[5] = 20% O2, outer layers, read-out: Prodrug 20% O2 Outer layers EC50

| Fraction of prodrug converted to active form, Hypoxic 0.2% O2 (FaDu cell line) | Fraction of prodrug converted to active form, Oxic 5% O2 (FaDu cell line) | IC50 [2] [µM] | SMILES | EC50 [1, 3] [µM] | EC50 [1, 4] [µM] | EC50 [1, 5] [µM] |
| --- | --- | --- | --- | --- | --- | --- |
| B (B is 0.05 to 0.15) | D (D is 0 to 0.02) | 10 to 30 | Cn1c(CN(c2cnc3cc(N4CCOCC4)nc(OC4CCC(Nc5ncc(N6CCN(CC(F)F)CC6)cn5)CC4)c3c2)S(C)(=O)=O)cnc1[N+](=O)[O-] (stereo not drawn) [LFA2048, N-[5-[4-[[5-[4-(2,2-difluoroethyl)piperazin-1-yl]pyrimidin-2-yl]amino]cyclohexoxy]-7-morpholino-1,6-naphthyridin-3-yl]-N-[(3-methyl-2-nitro-imidazol-4-yl)methyl]methanesulfonamide] | 0.5 to 1 | 1 to 10 | 0.5 to 1 |
| B (B is 0.05 to 0.15) | D (D is 0 to 0.02) | 1 to 10 | CC(c1cnc([N+](=O)[O-])n1C)N(c1cnc2cc(N3CCOCC3)nc(O[C@H]3CC[C@@H](Nc4ncc(OC5CCN(C)C5)cn4)CC3)c2c1)S(C)(=O)=O (stereo partly drawn) [LFA2068, N-[1-(3-methyl-2-nitro-imidazol-4-yl)ethyl]-N-[5-[4-[[5-(1-methylpyrrolidin-3-yl)oxypyrimidin-2-yl]amino]cyclohexoxy]-7-morpholino-1,6-naphthyridin-3-yl]methanesulfonamide] | 0.5 to 1 | 1 to 10 | 10 to 100 |
| B (B is 0.05 to 0.15) | C (C is 0.02 to 0.05) | 1 to 10 | CC(c1cnn(C)c1[N+](=O)[O-])N(c1cnc2cc(N3CCOCC3)nc(O[C@H]3CC[C@@H](Nc4ncc(C#N)cn4)CC3)c2c1)S(C)(=O)=O (stereo partly drawn) [LFA2052, N-[5-[4-[(5-cyanopyrimidin-2-yl)amino]cyclohexoxy]-7-morpholino-1,6-naphthyridin-3-yl]-N-[1-(1-methyl-5-nitro-pyrazol-4-yl)ethyl]methanesulfonamide] | 0.01 to 0.5 | 0.5 to 1 | 1 to 10 |
| A (A is 0.15 to 1) | D (D is 0 to 0.02) | 1 to 10 | CC(Oc1cnc2cc(N3CCOCC3)nc(O[C@H]3CC[C@@H](Nc4ncc(OCCN(C)C)cn4)CC3)c2c1)c1cnc([N+](=O)[O-])n1C (stereo partly drawn) [LFA2087, 5-[2-(dimethylamino)ethoxy]-N-[4-[[3-[1-(3-methyl-2-nitro-imidazol-4-yl)ethoxy]-7-morpholino-1,6-naphthyridin-5-yl]oxy]cyclohexyl]pyrimidin-2-amine] | 1 to 10 | 1 to 10 | 1 to 10 |
| C (C is 0.02 to 0.05) | D (D is 0 to 0.02) | 10 to 30 | CC(c1cnc([N+](=O)[O-])n1C)N(c1cnc2cc(N3CCOCC3)nc(O[C@H]3CC[C@@H](Nc4nccnc4C#N)CC3)c2c1)S(C)(=O)=O (stereo partly drawn) [LFA2100, N-[5-[4-[(3-cyanopyrazin-2-yl)amino]cyclohexoxy]-7-morpholino-1,6-naphthyridin-3-yl]-N-[1-(3-methyl-2-nitro-imidazol-4-yl)ethyl]methanesulfonamide] | 0.01 to 0.5 | 1 to 10 | 10 to 100 |
| A (A is 0.15 to 1) | C (C is 0.02 to 0.05) | 10 to 30 | Cn1c(COc2cnc3cc(N4CCOCC4)nc(O[C@H]4CC[C@@H](Nc5ncc(OCCN6CCOCC6)cn5)CC4)c3c2)cnc1[N+](=O)[O-] [LFA2069, N-[4-[[3-[(3-methyl-2-nitro-imidazol-4-yl)methoxy]-7-morpholino-1,6-naphthyridin-5-yl]oxy]cyclohexyl]-5-(2-morpholinoethoxy)pyrimidin-2-amine] | 0.01 to 0.5 | 1 to 10 | 1 to 10 |
| D (D is 0 to 0.02) | D (D is 0 to 0.02) | 10 to 30 | Cn1c(CNS(=O)(=O)c2cnc3cc(N4CCOCC4)nc(O[C@H]4CC[C@@H](Nc5ncc(C(F)(F)F)cn5)CC4)c3c2)cnc1[N+](=O)[O-] [LFA2091, N-[(3-methyl-2-nitro-imidazol-4-yl)methyl]-7-morpholino-5-[4-[[5-(trifluoromethyl)pyrimidin-2-yl]amino]cyclohexoxy]-1,6-naphthyridine-3-sulfonamide] | 10 to 100 | 10 to 100 | 10 to 100 |
| D (D is 0 to 0.02) | D (D is 0 to 0.02) | 10 to 30 | CC(NS(=O)(=O)c1cnc2cc(N3CCOCC3)nc(O[C@H]3CC[C@@H](Nc4ncc(OCCN5CCN(C)CC5)cn4)CC3)c2c1)c1cnc([N+](=O)[O-])n1C (stereo partly drawn) [LFA2090, N-[1-(3-methyl-2-nitro-imidazol-4-yl)ethyl]-5-[4-[[5-[2-(4-methylpiperazin-1-yl)ethoxy]pyrimidin-2-yl]amino]cyclohexoxy]-7-morpholino-1,6-naphthyridine-3-sulfonamide] | 10 to 100 | 10 to 100 | 10 to 100 |
| C (C is 0.02 to 0.05) | C (C is 0.02 to 0.05) | 1 to 10 | CC(c1cnn(C)c1[N+](=O)[O-])N(c1cnc2cc(N3CCOCC3)nc(O[C@H]3CC[C@@H](Nc4ncccn4)CC3)c2c1)S(C)(=O)=O (stereo partly drawn) [LFA2056, N-[1-(1-methyl-5-nitro-pyrazol-4-yl)ethyl]-N-[7-morpholino-5-[4-(pyrimidin-2-ylamino)cyclohexoxy]-1,6-naphthyridin-3-yl]methanesulfonamide] | 0.01 to 0.5 | 0.01 to 0.5 | 1 to 10 |
| A (A is 0.15 to 1) | D (D is 0 to 0.02) | 10 to 30 | Cc1ccc(N[C@H]2CC[C@@H](Oc3nc(N4CCOCC4)cc4ncc(OC(C)c5cnc([N+](=O)[O-])n5C)cc34)CC2)nc1 (stereo partly drawn) [LFA2105, 5-methyl-N-[4-[[3-[1-(3-methyl-2-nitro-imidazol-4-yl)ethoxy]-7-morpholino-1,6-naphthyridin-5-yl]oxy]cyclohexyl]pyridin-2-amine] | 1 to 10 | 1 to 10 | 10 to 100 |
| B (B is 0.05 to 0.15) | B (B is 0.05 to 0.15) | 1 to 10 | CN1CCC(Oc2cnc(N[C@H]3CC[C@@H](Oc4nc(N5CCOCC5)cc5ncc(N(Cc6cnn(C)c6[N+](=O)[O-])S(C)(=O)=O)cc45)CC3)nc2)C1 (stereo partly drawn) [LFA2062, N-[(1-methyl-5-nitro-pyrazol-4-yl)methyl]-N-[5-[4-[[5-(1-methylpyrrolidin-3-yl)oxypyrimidin-2-yl]amino]cyclohexoxy]-7-morpholino-1,6-naphthyridin-3-yl]methanesulfonamide] | 0.01 to 0.5 | 0.5 to 1 | 1 to 10 |
| A (A is 0.15 to 1) | D (D is 0 to 0.02) | 1 to 10 | CC(c1cnc([N+](=O)[O-])n1C1CC1)N(c1cnc2cc(N3CCOCC3)nc(O[C@H]3CC[C@@H](Nc4ncccn4)CC3)c2c1)S(C)(=O)=O (stereo partly drawn) [LFA2055, N-[1-(3-cyclopropyl-2-nitro-imidazol-4-yl)ethyl]-N-[7-morpholino-5-[4-(pyrimidin-2-ylamino)cyclohexoxy]-1,6-naphthyridin-3-yl]methanesulfonamide] | 0.01 to 0.5 | 0.01 to 0.5 | 1 to 10 |
| A (A is 0.15 to 1) | B (B is 0.05 to 0.15) | 10 to 30 | CC(Oc1cnc2cc(N3CCOCC3)nc(O[C@H]3CC[C@@H](Nc4ncc(N5CCN(C)CC5)cn4)CC3)c2c1)c1cnc([N+](=O)[O-])n1C (stereo partly drawn) [LFA2066, N-[4-[[3-[1-(3-methyl-2-nitro-imidazol-4-yl)ethoxy]-7-morpholino-1,6-naphthyridin-5-yl]oxy]cyclohexyl]-5-(4-methylpiperazin-1-yl)pyrimidin-2-amine] | 0.01 to 0.5 | 1 to 10 | 1 to 10 |
| A (A is 0.15 to 1) | C (C is 0.02 to 0.05) | 10 to 30 | Cc1cc(C)nc(N[C@H]2CC[C@@H](Oc3nc(N4CCOCC4)cc4ncc(OC(C)c5cnc([N+](=O)[O-])n5C)cc34)CC2)n1 (stereo partly drawn) [LFA2082, 4,6-dimethyl-N-[4-[[3-[1-(3-methyl-2-nitro-imidazol-4-yl)ethoxy]-7-morpholino-1,6-naphthyridin-5-yl]oxy]cyclohexyl]pyrimidin-2-amine] | 0.01 to 0.5 | 1 to 10 | 1 to 10 |
